≈ marks a conversion by molar mass, not a printed value.
What was measured:
Test in all cases: Antibacterial effect, dilution method on Mueller-Hinton agar
Type in all cases: cell-based
[1] = tested on: Escherichia coli NIHJJC-2; details: NIHJJC2, Mueller-Hinton agar (pH 7.0)
[2] = tested on: Enterobacter cloacae F 1510; details: F1510, Mueller-Hinton agar (pH 7.0)
Proteus mirabilis 1287 = details: Mueller-Hinton agar (pH 7.0)
[3] = tested on: Staphylococcus aureus 209-P; details: Mueller-Hinton agar (pH 7.0)
[4] = tested on: Krebsiella pneumoniae 8045; details: Mueller-Hinton agar (pH 7.0)
Serratia marcescens T-26 = details: T26, Mueller-Hinton agar (pH 7.0)
[5] = tested on: Citrobacter freundii F 1526; details: F1526, Mueller-Hinton agar (pH 7.0)
Proteus vulgaris 6897 = details: Mueller-Hinton agar (pH 7.0)

Row | SMILES | MIC [1] | MIC [2] | MIC (Proteus mirabilis 1287) | MIC [3] | MIC [4] | MIC (Serratia marcescens T-26) | MIC [5] | MIC (Proteus vulgaris 6897)
1 | CON=C(C(=O)NC1C(=O)N2C(C(=O)O)=C(C=Cc3nnnn3C)CCC12)c1csc(N)n1 (racemic) [Compound of Ref. Ex. 9, (±)-6,7-cis-7-[2-(2-aminothiazol-4-yl)-2-syn-methoxyiminoacetamido]-3-[2-(1-methyl-1H-tetrazol-5-yl)vinyl]-1-azabicyclo [4.2.0] oct-2-en-8-oxo-2-carboxylic acid] | 0.01 µg/mL (≈ 0.0211 µM) | 0.2 µg/mL (≈ 0.422 µM) | 0.01 µg/mL (≈ 0.0211 µM) | 1.56 µg/mL (≈ 3.29 µM) | 0.1 µg/mL (≈ 0.211 µM) | 1.56 µg/mL (≈ 3.29 µM) | 0.2 µg/mL (≈ 0.422 µM) | 0.01 µg/mL (≈ 0.0211 µM)
2 | CCOC(=O)C=CC1=C(C(=O)O)N2C(=O)C(NC(=O)C(=NOC)c3csc(N)n3)C2CC1 (racemic) [Compound of Ref. Ex. 10, (±)-6,7-cis-7-[2-(2-aminothiazol-4-yl)-2-syn-methoxyiminoacetamido]-3-(2-ethoxycarbonvlviayl)-1-azabicyclo [4.2.0]oct-2-en-8-oxo-2-carboxylic acid] | 0.2 µg/mL (≈ 0.432 µM) | 1.56 µg/mL (≈ 3.37 µM) | 0.1 µg/mL (≈ 0.216 µM) | 6.25 µg/mL (≈ 13.5 µM) | 0.39 µg/mL (≈ 0.841 µM) | 3.13 µg/mL (≈ 6.75 µM) | 0.78 µg/mL (≈ 1.68 µM) | 0.01 µg/mL (≈ 0.0216 µM)
